Columns and labels:
[1] = test system: PolySeed BOD Seed Inoculum (blend of broad spectrum bacteria); assay: Durability test of bacteria inhibition (repeated spiking of bacteria on agar plate, swab viable count); assay type: cell-based; conditions: bacteria spiked every 60 minutes
Procedure: To evaluate the durability of bacteria inhibition of the exemplary compositions, durability test by regularly spiking a fixed amount of bacteria into the sample is performed and the procedures are incorporated herein by reference.
• Group A: Agar plate with 0.5 mL distilled water; • Group B: Agar plate with 0.5 mL 75% isopropyl alcohol (IPA); • Group C: Agar plate with 0.5 g of tested exemplary composition.
Bacteria strain used: PolySeed® BOD Seed Inoculum Capsules (1 capsule dissolved into 500 mL Distilled Water) (Interlab), which contains a blend of broad spectrum bacteria designed specifically as a seed inoculum for the Biochemical Oxygen Demand (BOD 5) test as conducted in accordance to Standard Methods of the Examination of Water and Wastewater. PolySeed® is an EPA approved BOD 5 seed inoculum that has been used to seed both municipal and industrial wastes for almost 20 years. • Agar: Trypticase Soy Agar (TSA) • Incubation condition: 48 hours at 30±1° C. • Testing Procedure
The above three sample group agar plates are used as the sample matrices of different initial situation for spiking 0.5 ml bacteria solution for every 60 minutes, i.e.: there was an on-going process of spiking bacteria at time 0, 60, 120, 180, 240, 300 minutes;
A swab testing is carried out every 30 minutes from matrix samples of each group to test for the viable count of bacteria at the time interval.
Example of sample with sequence in time: • AM: 0.5 ml bacteria solution is added at T0−10 min; • Sample A1: To swab from AM at T0; Sample A2: To swab from AM at T1; • AM: 0.5 ml bacteria solution is added at T2−10 min; • Sample A3: To swab from AM at T2; Sample A4: To swab from AM at T3; • AM: 0.5 ml bacteria solution is added at T4−10 min; and so forth. Table 2 summarized the testing schedule for durability test.

[2] = test system: PolySeed BOD Seed Inoculum (blend of broad spectrum bacteria); assay: Volatility test (duration of bacteria inhibition on agar plate, swab viable count); assay type: cell-based
Procedure: To study the duration on ability of bacteria inhibition of an exemplary composition, a volatility test is performed.
• Group A: Agar plate with 0.5 mL distilled water; • Group B: Agar plate with 0.5 mL 75% isopropyl alcohol (IPA); • Group C: Agar plate with 0.5 g of tested exemplary composition. • Bacteria strain used: PolySeed® BOD Seed Inoculum Capsules (1 capsule dissolved into 500 mL Distilled Water) (Interlab) • Agar: Trypticase Soy Agar (TSA) • Incubation condition: 48 hours at 30±1° C. Testing Procedure
0.5 mL bacteria solution is add into the agar plate groups A, B and C at the time interval of Tx. as defined in Table 1.3.
After T10, bacteria solution is spiked to all the agar plates except agar blank.
Swab test is carried out to test for the viable count of bacteria at the time interval Tx.

## 75% isopropyl alcohol [75% IPA]
[1]; T0 (0 min)
  Viable count of bacteria, durability test: 8 CFU/plate
[1]; T1 (30 min)
  Viable count of bacteria, durability test: 28 CFU/plate
[1]; T2 (60 min)
  Viable count of bacteria, durability test: 53 CFU/plate
[1]; T3 (90 min)
  Viable count of bacteria, durability test: 89 CFU/plate
[1]; T4 (120 min)
  Viable count of bacteria, durability test: 254 CFU/plate
[1]; T5 (150 min)
  Viable count of bacteria, durability test: 346 CFU/plate
[2]; T0 (0 min)
  Viable count of bacteria, volatility test: 54 CFU/plate
[2]; T1 (30 min)
  Viable count of bacteria, volatility test: 62 CFU/plate
[2]; T2 (60 min)
  Viable count of bacteria, volatility test: 50 CFU/plate
[2]; T3 (90 min)
  Viable count of bacteria, volatility test: 45 CFU/plate
[2]; T4 (120 min)
  Viable count of bacteria, volatility test: 49 CFU/plate
[2]; T5 (150 min)
  Viable count of bacteria, volatility test: 55 CFU/plate
[2]; T6 (180 min)
  Viable count of bacteria, volatility test: 43 CFU/plate
[2]; T7 (210 min)
  Viable count of bacteria, volatility test: 37 CFU/plate
[2]; T8 (240 min)
  Viable count of bacteria, volatility test: 44 CFU/plate
[2]; T9 (270 min)
  Viable count of bacteria, volatility test: 49 CFU/plate
[2]; T10 (300 min)
  Viable count of bacteria, volatility test: 0 CFU/plate

Source: patent US12629322B2, “Antiseptic compositions” (RHT LIMITED, priority 2020, dated 2026)
